Patent US8524755B2 (priority 2009, dated 2013)

Assays:
[1] = [14C]RD162′ radio-HPLC metabolite profile in Pooled Rat Plasma; type: in vivo, Sprague Dawley rats; details: [14C]RD162′ 100 mg/kg/day oral, day 7, 4 h
Description: The rats were dosed once a day for seven consecutive days; four hours after dosing on the seventh day, plasma was collected from all three rats. The plasma samples were stored at approximately −70° C. or colder.
Positive ion electrospray LC/MS and LC/MS/MS were used to analyze the metabolites.
To prepare the Pooled Rat Plasma for HPLC analysis, approximately 1 g of the plasma sample was combined with acetonitrile (ACN, sample:ACN, 1:3, v:v), vortex mixed, sonicated in cold water, centrifuged, and the supernatants were removed. The extraction was repeated twice and the respective supernatants were combined. […] The combined supernatants were evaporated to dryness and reconstituted in 1 mL of 0.1% formic acid in reverse osmosis (RO) water:ACN: methanol (MeOH, 50:45:5, v:v:v). […] The reconstituted sample was analyzed by HPLC to determine the metabolite profile with fractions collected at 10-second intervals and analyzed by solid scintillation counting.
The prepared samples were analyzed using the following LC/MS/MS conditions: HPLC: Hewlett Packard 1100 series; Mobile Phase: 0.1% formic acid in reverse osmosis water (A) and acetonitrile (B); Column: Agilent Eclipse XDB-C18, 4.6×150 mm, 5 μm; Guard column: Phenomenex Security Guard Cartridge C18, 3×4 mm; Column temperature: 20° C.; Gradient: 20-80% B in 40 min; Flow Rate: 1.5 mL/min.

Androgen Receptor = biological target: T1, Androgen Receptor (Homo sapiens, UniProt P10275); assay: Androgen Receptor Nuclear Translocation Assay; type: cell-based; details: agonist mode; PathHunter NHRPro cells; 5 h; read-out: AR Nuclear Translocation Assay Agonist Mode EC50
T1 construct: expressed in transfected cells; host or cells: PathHunter NHRPro cell lines
T1 sequence (P10275 1-920): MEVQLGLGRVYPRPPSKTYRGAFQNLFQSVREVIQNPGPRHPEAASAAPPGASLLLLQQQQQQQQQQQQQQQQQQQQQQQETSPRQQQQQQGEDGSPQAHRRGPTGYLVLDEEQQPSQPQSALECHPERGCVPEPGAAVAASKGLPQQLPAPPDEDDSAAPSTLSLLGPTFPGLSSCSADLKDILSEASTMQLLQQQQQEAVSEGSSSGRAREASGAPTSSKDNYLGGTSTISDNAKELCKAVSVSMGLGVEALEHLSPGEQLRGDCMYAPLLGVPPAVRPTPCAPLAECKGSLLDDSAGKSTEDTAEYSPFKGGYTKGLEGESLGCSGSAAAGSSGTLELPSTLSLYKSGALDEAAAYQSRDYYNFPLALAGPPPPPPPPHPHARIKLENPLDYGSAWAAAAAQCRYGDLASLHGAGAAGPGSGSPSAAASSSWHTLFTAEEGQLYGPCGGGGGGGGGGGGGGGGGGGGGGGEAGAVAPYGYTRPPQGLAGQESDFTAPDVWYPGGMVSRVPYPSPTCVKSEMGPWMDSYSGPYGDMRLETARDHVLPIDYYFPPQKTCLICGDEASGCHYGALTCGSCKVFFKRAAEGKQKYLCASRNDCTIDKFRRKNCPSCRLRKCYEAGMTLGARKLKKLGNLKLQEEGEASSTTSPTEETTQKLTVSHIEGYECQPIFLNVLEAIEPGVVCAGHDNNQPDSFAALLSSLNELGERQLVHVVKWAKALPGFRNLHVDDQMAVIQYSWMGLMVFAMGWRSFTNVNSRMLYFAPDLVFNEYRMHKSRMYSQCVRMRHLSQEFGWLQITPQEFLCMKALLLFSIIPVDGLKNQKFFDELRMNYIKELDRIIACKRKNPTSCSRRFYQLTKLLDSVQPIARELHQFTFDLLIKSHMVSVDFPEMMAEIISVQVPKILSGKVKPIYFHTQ
Description: Once it was established that the cells were healthy and growing normally, cells were transferred from flasks using trypsin-free cell dissociation buffer and seeded into white walled clear bottom 384-well microplates for compound profiling. For profiling, cells were seeded at a density of 10,000 cells per well in a total volume of 50 μL and were allowed to adhere and recover overnight prior to compound addition. Media contained charcoal-dextran filtered serum to reduce the level of hormones present.
Agonist Format: Intermediate dilution of compound stocks were generated such that 5.5 μL of 10X compound could be added to each well with a final DMSO concentration of 1% of total volume. For profiling compound in agonist mode, the cells were incubated in the presence of compound at 37° C. for 5 h.
Antagonist Format: Agonist dose curves were performed to determine the EC80 value for the following antagonist testing with compounds. 5.5 μL of 10× agonist was added to each well with an equal concentration of vehicle present. EC80 agonist concentration was determined directly from agonist dose curve. For antagonist determination, cells were pre-incubated with antagonist followed by agonist challenge at the EC80 concentration: 5.5 μL of 10× compound added to cells and incubated at 37° C. for 1 h; 5.5 μL of 11× EC80 agonist added to cells and incubated at 37° C. for 5 h.
Signal Detection: After appropriate compound incubation, assay signal was generated through a single addition of 30 μL (50% v/v) of PathHunter Detection reagent cocktail for agonist and antagonist assays respectively followed by 1 h incubation at room temperature. Microplates were read following signal generation with a PerkinElmer ViewLux™ instrument for chemiluminescent signal detection.
Data Analysis: Dose curves in the presence and absence of compound were plotted using GraphPad Prism.

Compound	% Injected Radioactivity (%) [1] [%]	% Recovered Radioactivity (%) [1] [%]	Peak Area (mV) [1] [mV]	Peak Height (mV) [1] [mV]	EC50 (Androgen Receptor) [nM]
CC1(C)C(=O)N(c2ccc(C#N)c(C(F)(F)F)c2)C(=O)N1c1ccc(C(=O)O)c(F)c1 [(MV), 4-(3-(4-cyano-3-(trifluoromethyl)phenyl)-5,5-dimethyl-2,4-dioxoimidazolidin-1-yl)-2-fluorobenzoic acid]	5.76	9.05	308	49	
Norgesterol [reference compound]					2.9
